This is an account of results in patent publication US6573377B1, “Pyrazole derivatives and salts thereof” (Daiichi Pharmaceuticals Co., Ltd., priority 1998, dated 2003).

Values after ≈ are worked out from the molar mass of the structure shown. Structures can show the parent of a compound that is named as a salt. Marks after values point to notes of the source that are not given here.

Data set [1] deals with human pulmonary carcinoma strain PC-12. The data set is described as follows: Growth inhibition of PC-12 cells, MTT assay (Test Example 1). The following applies: cultured 3 days with sample, absorbance 540 nm; for GI50: Homo sapiens, PC-12, 72 h. The format is cell-based. Here is the method:
A human pulmonary carcinoma strain PC-12 which had been subcultured using RPMI 1640 containing 10% fetal calf serum, 2 mM of L-glutamine and 100 μg/ml of kanamycin sulfate was inoculated into a 96 well microplate at an inoculum size of 1.0×1.0^3 cells/150 μl/well, and 50 μl/well of a sample was added 24 hours thereafter. The cells were then cultured for 3 days, and a 5 mg/ml solution of MTT (3-(4,5-dimethylthiazol-2-yl)-2,5-diphenyl-2H-tetrazolium bromide) was dispensed in 20 μl/well portions. Four hours thereafter, the culture medium was discarded, dimethyl sulfoxide was dispensed in 150 μl/well portions and the absorbance was measured at 540 nm. The antitumor effect was shown by GI50 value (ng/ml) as a drug concentration which reduced cell growth of the drug-added group to 50% of the control group.
For orientation: Formazan colour is commonly taken as a measure of viable cells.

In data set [2] the test system is mice (Balb/c). The data set is described as follows: Coordination inhibition test, RotaRod (Test Example 2). The note with it: oral; for T/C (coordination inhibition positive mice/tested mice) After 1 hour: 1 hour after administration; for T/C (coordination inhibition positive mice/tested mice) After 4 hours: 4 hours after administration. The format is in vivo. The procedure:
Rotation speed of the rotary rod (3 cm in diameter) of RotaRod apparatus (mfd. by Natsume Seisaku-sho) was set to 10 rpm, and mice (Balb/c) which stood on the rod for 60 seconds or more were selected. After 1, 4 or 24 hours of the oral administration of each test sample, these mice were put on the rod, and the mice which dropped within 60 seconds were regarded as coordination inhibition action positive.
(In the rotarod test animals must keep their balance on a rotating rod.)

The test system of data set [3] is Mouse fibrosarcoma Meth A. The data set is described as follows: Antitumor effect (IR) against subcutaneously transplanted Meth A. The format is in vivo, mice. The following applies: judged on the 17th day.

One may read the GI50 as the concentration giving 50% growth inhibition. The compound `Cc1c(/C=C/CN2CCN(c3cc(F)cc(F)c3)CC2)cnn1-c1cc(NCCO)nc(N)n1.Cl` [Example 11, 1-[1-[2-Amino-6-(2-hydroxyethyl)amino-4-pyrimidinyl]-5-methyl-4-pyrazolyl]-3-[4-(3,5-difluorophenyl)-1-piperazinyl]-1-trans-propene] gave a GI50 in data set [1] of 2.49 ng/mL.
The same measure, in the same setting: for `Cc1c(/C=C/CN2CCN(c3cc(F)cc(F)c3)CC2)cnn1-c1cc(N(CCO)CCO)nc(N)n1.Cl` [Example 12, 1-[1-[2-Amino-6-di(2-hydroxyethyl)amino-4-pyrimidinyl]-5-methyl-4-pyrazolyl]-3-(4-(3,5-difluorophenyl)-1-piperazinyl]-1-trans-propene hydrochloride] the value was 1.6 ng/mL; for `Cc1c(/C=C/CN2CCN3c4cc(F)cc(F)c4CCC3C2)cnn1-c1cc(NCCO)nc(N)n1` (stereo not drawn) [Example 27, 3-[3-[1-[2-Amino-6-(2-hydroxyethyl)amino-4-pyrimidinyl]-5-methyl-4-pyrazolyl]-2-trans-propen-1-yl]-7,9-difluoro-2,3,4,4a,5,6-hexahydro-1H-pyrazino[1,2-a]quinoline hydrochloride], 9.3 ng/mL.
On to `Cc1c(/C=C/CN2CCN(c3cc(F)cc(F)c3)CC2)cnn1-c1nc(N)cc(N2CC(O)C2)n1.Cl` [Example 21, 1-[1-[4-Amino-6-(3-hydroxy-1-azetidinyl)-2-pyrimidinyl]-5-methyl-4-pyrazolyl]-3-[4-(3,5-difluorophenyl)-1-piperazinyl]-1-trans-propene hydrochloride], for which the GI50 in data set [1] worked out at 3.39 ng/mL.
For `Cc1c(/C=C/CN2CCN(c3cc(F)cc(F)c3)CC2)cnn1-c1cc(N2CC(O)C2)nc(N)n1.Cl` [Example 13, 1-[1-[2-Amino-6-(3-hydroxy-1-azetidinyl)-4-pyrimidinyl]-5-methyl-4-pyrazolyl]-3-[4-(3,5-difluorophenyl)-1-piperazinyl]-1-trans-propene hydrochloride], the “T/C (coordination inhibition positive mice/tested mice) After 1 hour” value in data set [2] (dose 5 mg) is given as 0/6; in data set [2] (dose 10 mg) it was 0/6; in data set [2] (dose 12 mg) it was 1/6. For the same compound, the “T/C (coordination inhibition positive mice/tested mice) After 4 hours” value in data set [2] (dose 5 mg) is reported as 0/6; in data set [2] (dose 10 mg) it was 0/6; in data set [2] (dose 12 mg), 2/6. For the same compound, the “antitumor effect (IR)” value in data set [3] (oral 5 mg × 4 times (d7-10)) is 5 mg × 4 times (IR 92%)*. This compound also registered a GI50 in data set [1] of 0.601 ng/mL.
With `Cc1c(/C=C/CN2CCN(c3cc(F)cc(F)c3)CC2)cnn1-c1cc(N2CC(C)(O)C2)nc(N)n1.Cl` [Example 54, 1-[1-[2-Amino-6-(3-hydroxy-3-methyl-1-azetidinyl)-4-pyrimidinyl]-5-methyl-4-pyrazolyl]-3-[4-(3,5-difluorophenyl)-1-piperazinyl]-1-trans-propene hydrochloride], the “T/C (coordination inhibition positive mice/tested mice) After 1 hour” value in data set [2] (dose 10 mg) and in data set [2] (dose 30 mg) was 0/6 each time. Further, the “T/C (coordination inhibition positive mice/tested mice) After 4 hours” value in data set [2] (dose 10 mg) and in data set [2] (dose 30 mg) was 0/6 throughout. In data set [3] (oral 10 mg × 4 times (d7-10)), the “antitumor effect (IR)” value was 10 mg × 4 times (IR 89%)*. Also, halving of growth in data set [1] (GI50) required 11.3 ng/mL.
As to `Cc1c(/C=C/CN2CCN3c4ccccc4CC3C2)cnn1-c1nccc(N)n1` (racemic) [Example 4, (+/−)-2-[3-[1-(4-Amino-2-pyrimidinyl)-5-methyl-4-pyrazolyl]-2-trans-propen-1-yl]-1,2,3,4,10,10a-hexahydropyrazino[1,2-a]indole hydrochloride], in data set [1], the GI50 was found to be 12.1 ng/mL.
On the same count and under the same terms, for `Cc1c(/C=C/CN2CCN3c4cc(F)cc(F)c4CCC3C2)cnn1-c1cc(N(CCO)CCO)nc(N)n1` (single isomer, unassigned; isomer b) [Example 29, 3-[3-[1-[2-Amino-6-di(2-hydroxyethyl)amino-4-pyrimidinyl]-5-methyl-4-pyrazolyl]-2-trans-propen-1-yl]-7,9-difluoro-2,3,4,4a,5,6-hexahydro-1H-pyrazino[1,2-a]quinoline hydrochloride (isomer B)] the value was 1.54 ng/mL.
Regarding `Cc1c(/C=C/CN2CCN3c4cc(F)ccc4CCC3C2)cnn1-c1nccc(N)n1` (single isomer, unassigned; isomer b) [Example 2, 3-[3-[1-(4-amino-2-pyrimidinyl)-5-methyl-4-pyrazolyl]-2-trans-propen-1-yl]-9-fluoro-2,3,4,4a,5,6-hexahydro-1H-pyrazino[1,2-a]quinoline hydrochloride (isomer B)], the “GI50 Value” in data set [1] (listed as Compound of Example 2) was found to be 12.1 ng/mL.
For `Cc1c(/C=C/CN2CCN(c3cc(F)cc(F)c3)CC2)cnn1-c1nc(N)cc(N2CCC2)n1` [Example 26, 1-[[4-Amino-6-(1-azetidinyl)-2-pyrimidinyl]-5-methyl-4-pyrazolyl]-3-[4-(3,5-difluorophenyl)-1-piperazinyl]-1-trans-propene hydrochloride], in data set [1], the GI50 is 6.29 ng/mL.
Still for that read-out and setting: to `Cc1c(/C=C/CN2CCN(c3cc(F)cc(F)c3)CC2)cnn1-c1cc(NCCN)nc(N)n1.Cl` [Example 15, 1-[1-[2-Amino-6-(2-aminoethyl)amino-4-pyrimidinyl]-5-methyl-4-pyrazolyl]-3-[4-(3,5-difluorophenyl)-1-piperazinyl]-1-trans-propene hydrochloride] belongs 26.6 ng/mL.
Turning to `Cc1c(/C=C/CN2CCN3c4cc(F)ccc4CCC3C2)cnn1-c1nccc(N)n1` (single isomer, unassigned; isomer a) [Example 1, 3-[3-[1-(4-Amino-2-pyrimidinyl)-5-methyl-4-pyrazolyl]-2-trans-propen-1-yl]-9-fluoro-2,3,4,4a,5,6-hexahydro-1H-pyrazino[1,2-a]quinoline hydrochloride (isomer A)], the “GI50 Value” in data set [1] (listed as Compound of Example 1) was 36.5 ng/mL.
The compound `Cc1c(/C=C/CN2CCN(c3cc(F)cc(F)c3)CC2)cnn1-c1cc(N2CC(N)C2)nc(N)n1.Cl` [Example 19, 1-[1-[2-Amino-6-(3-amino-1-azetidinyl)-4-pyrimidinyl]-5-methyl-4-pyrazolyl]-3-[4-(3,5-difluorophenyl)-1-piperazinyl]-1-trans-propene hydrochloride] showed a GI50 in data set [1] of 2.35 ng/mL.
Same read-out and setting: for `Cc1c(/C=C/CN2CCN3c4cc(F)ccc4OCC3C2)cnn1-c1nccc(N)n1` (racemic) [Example 3, (+/−)-3-[3-[1-(4-Amino-2-pyrimidinyl)-5-methyl-4-pyrazolyl]-2-trans-propen-1-yl]-9-fluoro-2,3,4,4a,5,6-hexahydro-1H-pyrazino[2,1-c]-1,4-benzoxazine hydrochloride] the value was 20.9 ng/mL; for `Cc1c(/C=C/CN2CCN3c4cc(F)cc(F)c4CCC3C2)cnn1-c1cc(N(C)CCO)nc(N)n1.Cl` (single isomer, unassigned; isomer b) [Example 28, 3-[3-[1-[2-Amino-6-[N-methyl-N-(2-hydroxyethyl)amino-4-pyrimidinyl]-5-methyl-4-pyrazolyl]-2-trans-propen-1-yl]-7,9-difluoro-2,3,4,4a,5,6-hexahydro-1H-pyrazino[1,2-a]quinoline hydrochloride (isomer B)], 0.725 ng/mL.
Turning to `O=c1[nH]cc(F)c(=O)[nH]1` [Example 5-FU, 5-FU, reference compound], the “GI50 Value” in data set [1] was determined as 35.5 ng/mL (≈ 0.273 µM).
